# Laboratory results from ChEMBL document CHEMBL1143200, “Design and physicochemical properties of new fluorescent ligands of protein kinase C isozymes focused on CH/pi interaction” (Bioorg Med Chem, 2008).
# How the values were obtained:
# [1] = molecular target: T1, Protein kinase C alpha type (Homo sapiens, UniProt P17252); assay: Displacement of [3H]PDBu from PKCalpha C1B domain
# [2] = molecular target: T2, Protein kinase C beta type (Homo sapiens, UniProt P05771); assay: Displacement of [3H]PDBu from PKCbeta C1B domain
# [3] = molecular target: T2, Protein kinase C beta type; assay: Displacement of [3H]PDBu from PKCbeta C1A domain
# [4] = molecular target: T3, Protein kinase C epsilon type (Homo sapiens, UniProt Q02156); assay: Displacement of [3H]PDBu from PKCepsilon C1B domain
# T3 sequence (Q02156 whole entry): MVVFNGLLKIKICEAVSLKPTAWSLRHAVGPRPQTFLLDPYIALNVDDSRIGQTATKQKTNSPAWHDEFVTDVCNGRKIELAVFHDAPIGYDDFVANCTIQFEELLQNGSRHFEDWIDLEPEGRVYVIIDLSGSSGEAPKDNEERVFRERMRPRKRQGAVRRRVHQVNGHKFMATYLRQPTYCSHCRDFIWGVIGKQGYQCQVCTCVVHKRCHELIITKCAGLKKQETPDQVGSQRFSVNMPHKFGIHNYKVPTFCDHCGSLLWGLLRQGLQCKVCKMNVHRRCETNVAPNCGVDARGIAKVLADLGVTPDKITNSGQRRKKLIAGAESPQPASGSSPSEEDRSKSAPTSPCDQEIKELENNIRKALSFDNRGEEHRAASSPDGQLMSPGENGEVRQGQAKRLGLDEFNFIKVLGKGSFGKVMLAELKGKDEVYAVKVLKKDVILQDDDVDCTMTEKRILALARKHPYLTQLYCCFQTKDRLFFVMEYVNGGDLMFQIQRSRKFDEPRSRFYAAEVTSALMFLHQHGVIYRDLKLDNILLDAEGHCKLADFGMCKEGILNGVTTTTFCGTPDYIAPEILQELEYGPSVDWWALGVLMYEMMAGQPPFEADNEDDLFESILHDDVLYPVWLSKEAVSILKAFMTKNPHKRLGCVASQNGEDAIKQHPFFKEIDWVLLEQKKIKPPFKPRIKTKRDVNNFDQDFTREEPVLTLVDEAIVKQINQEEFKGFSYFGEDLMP
# [5] = molecular target: T4, Protein kinase C gamma type (Homo sapiens, UniProt P05129); assay: Displacement of [3H]PDBu from PKCgamma C1B domain
# [6] = molecular target: T1, Protein kinase C alpha type; assay: Displacement of [3H]PDBu from PKCalpha C1A domain
# [7] = molecular target: Protein kinase C eta type (Homo sapiens, UniProt P24723); assay: Displacement of [3H]PDBu from PKCeta C1B domain
# [8] = molecular target: Protein kinase C theta type (Homo sapiens, UniProt Q04759); assay: Displacement of [3H]PDBu from PKCtheta C1B domain
# [9] = molecular target: T4, Protein kinase C gamma type; assay: Displacement of [3H]PDBu from PKCgamma C1A domain
# [10] = molecular target: Protein kinase C delta type (Homo sapiens, UniProt Q05655); assay: Displacement of [3H]PDBu from PKCdelta C1B domain
# Chain of Protein kinase C delta type (Q05655 whole entry, the tested form may be a part): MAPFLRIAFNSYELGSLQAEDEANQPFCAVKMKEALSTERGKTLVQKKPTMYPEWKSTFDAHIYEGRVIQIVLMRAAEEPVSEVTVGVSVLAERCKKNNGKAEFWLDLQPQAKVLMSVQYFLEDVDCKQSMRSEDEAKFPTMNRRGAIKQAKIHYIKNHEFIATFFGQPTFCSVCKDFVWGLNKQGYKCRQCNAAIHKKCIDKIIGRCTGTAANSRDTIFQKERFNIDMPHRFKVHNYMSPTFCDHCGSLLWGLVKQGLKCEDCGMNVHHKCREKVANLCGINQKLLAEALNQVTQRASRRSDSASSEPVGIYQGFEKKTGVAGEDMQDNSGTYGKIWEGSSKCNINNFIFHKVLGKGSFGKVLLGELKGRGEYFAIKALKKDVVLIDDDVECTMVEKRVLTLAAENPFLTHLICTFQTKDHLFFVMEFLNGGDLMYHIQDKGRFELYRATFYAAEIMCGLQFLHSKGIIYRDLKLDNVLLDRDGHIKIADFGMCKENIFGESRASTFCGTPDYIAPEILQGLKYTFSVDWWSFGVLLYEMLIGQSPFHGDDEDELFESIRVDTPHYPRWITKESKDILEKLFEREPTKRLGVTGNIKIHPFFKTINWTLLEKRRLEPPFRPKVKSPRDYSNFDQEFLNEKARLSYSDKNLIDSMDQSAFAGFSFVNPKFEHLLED
# Chain of Protein kinase C eta type (P24723 whole entry, the tested form may be a part): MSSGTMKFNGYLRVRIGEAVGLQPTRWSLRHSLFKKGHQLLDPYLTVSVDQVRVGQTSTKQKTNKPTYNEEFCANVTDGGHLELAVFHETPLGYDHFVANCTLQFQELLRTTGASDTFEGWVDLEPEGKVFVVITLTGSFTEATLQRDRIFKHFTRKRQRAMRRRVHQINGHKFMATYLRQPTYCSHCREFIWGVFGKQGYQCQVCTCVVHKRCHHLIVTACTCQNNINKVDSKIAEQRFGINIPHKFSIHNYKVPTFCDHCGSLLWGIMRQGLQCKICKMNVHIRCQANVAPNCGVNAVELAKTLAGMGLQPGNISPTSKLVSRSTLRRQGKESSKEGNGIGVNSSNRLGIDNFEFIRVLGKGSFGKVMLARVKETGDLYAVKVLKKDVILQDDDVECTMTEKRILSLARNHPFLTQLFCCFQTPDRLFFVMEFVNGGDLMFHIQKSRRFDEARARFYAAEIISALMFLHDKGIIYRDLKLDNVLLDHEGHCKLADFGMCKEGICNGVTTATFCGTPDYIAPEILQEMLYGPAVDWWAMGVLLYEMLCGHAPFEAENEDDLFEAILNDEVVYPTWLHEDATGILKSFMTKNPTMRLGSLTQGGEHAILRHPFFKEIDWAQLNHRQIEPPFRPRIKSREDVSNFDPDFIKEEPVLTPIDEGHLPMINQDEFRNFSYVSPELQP
# Chain of Protein kinase C theta type (Q04759 whole entry, the tested form may be a part): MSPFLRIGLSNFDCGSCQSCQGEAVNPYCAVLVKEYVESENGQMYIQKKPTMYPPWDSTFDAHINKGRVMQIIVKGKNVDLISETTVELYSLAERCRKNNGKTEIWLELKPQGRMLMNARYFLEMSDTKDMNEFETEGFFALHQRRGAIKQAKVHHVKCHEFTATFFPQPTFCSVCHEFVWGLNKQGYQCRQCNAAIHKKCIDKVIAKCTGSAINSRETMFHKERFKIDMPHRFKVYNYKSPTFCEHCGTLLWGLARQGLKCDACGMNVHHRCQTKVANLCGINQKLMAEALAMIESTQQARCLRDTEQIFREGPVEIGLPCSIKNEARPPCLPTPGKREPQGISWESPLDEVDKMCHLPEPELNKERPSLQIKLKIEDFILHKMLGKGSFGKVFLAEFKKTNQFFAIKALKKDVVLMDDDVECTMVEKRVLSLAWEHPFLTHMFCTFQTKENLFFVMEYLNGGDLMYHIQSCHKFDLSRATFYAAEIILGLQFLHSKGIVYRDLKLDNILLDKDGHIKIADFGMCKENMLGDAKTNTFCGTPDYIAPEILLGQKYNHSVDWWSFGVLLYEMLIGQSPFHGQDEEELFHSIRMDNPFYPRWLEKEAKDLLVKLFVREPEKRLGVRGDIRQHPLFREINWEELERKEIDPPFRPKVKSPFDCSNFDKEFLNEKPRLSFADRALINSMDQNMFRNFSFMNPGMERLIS
# T2 sequence (P05771 whole entry, the tested form may be a part): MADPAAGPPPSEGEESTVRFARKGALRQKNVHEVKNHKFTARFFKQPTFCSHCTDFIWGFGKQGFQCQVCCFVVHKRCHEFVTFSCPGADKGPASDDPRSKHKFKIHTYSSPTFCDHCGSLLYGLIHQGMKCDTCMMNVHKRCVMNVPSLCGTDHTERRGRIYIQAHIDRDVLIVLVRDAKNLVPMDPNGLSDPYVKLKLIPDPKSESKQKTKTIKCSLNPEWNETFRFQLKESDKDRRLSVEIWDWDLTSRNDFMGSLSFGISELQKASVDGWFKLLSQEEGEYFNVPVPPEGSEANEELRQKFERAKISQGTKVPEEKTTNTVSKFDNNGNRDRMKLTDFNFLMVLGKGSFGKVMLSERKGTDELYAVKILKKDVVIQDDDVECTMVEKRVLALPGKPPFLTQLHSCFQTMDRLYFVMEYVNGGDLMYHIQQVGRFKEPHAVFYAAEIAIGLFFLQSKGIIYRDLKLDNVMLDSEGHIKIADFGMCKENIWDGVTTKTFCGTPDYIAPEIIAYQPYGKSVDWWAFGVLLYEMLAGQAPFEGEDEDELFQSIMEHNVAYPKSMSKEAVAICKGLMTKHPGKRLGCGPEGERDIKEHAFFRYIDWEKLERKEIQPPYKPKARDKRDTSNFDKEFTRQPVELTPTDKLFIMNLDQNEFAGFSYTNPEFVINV
Compound,Ki [1] [nM],Ki [2] [nM],Ki [3] [nM],Ki [4] [nM],Ki [5] [nM],Ki [6] [nM],Ki [7] [nM],Ki [8] [nM],Ki [9] [nM],Ki [10] [nM]
CC(C)[C@H]1C(=O)N[C@H](CO)Cc2c[nH]c3cccc(c23)N1C [INDOLACTUM],140,4000,–,–,–,–,–,–,–,–
CC(C)[C@H]1C(=O)N[C@H](CO)Cc2cn3ncc4ccc(c2c43)N1C,357,5960,88,22.5,225,85.5,9.9,18.6,61.3,17.7
Cc1nn2cc3c4c(ccc1c42)N(C)[C@@H](C(C)C)C(=O)N[C@H](CO)C3,2620,> 10000,1100,407,2580,1090,223,149,1510,128
CC(C)[C@H]1C(=O)N[C@H](CO)Cc2cn3nc(C(F)(F)F)c4ccc(c2c43)N1C,721,9380,127,80.1,1100,112,29.7,51.1,234,52.1
